Read-outs that look alike come from different tables or passages of the source.
Biological target: T1, A. thaliana PRORP1 (Arabidopsis thaliana, UniProt Q66GI4)
T1 construct: made in house
T1 sequence (Q66GI4 77-572): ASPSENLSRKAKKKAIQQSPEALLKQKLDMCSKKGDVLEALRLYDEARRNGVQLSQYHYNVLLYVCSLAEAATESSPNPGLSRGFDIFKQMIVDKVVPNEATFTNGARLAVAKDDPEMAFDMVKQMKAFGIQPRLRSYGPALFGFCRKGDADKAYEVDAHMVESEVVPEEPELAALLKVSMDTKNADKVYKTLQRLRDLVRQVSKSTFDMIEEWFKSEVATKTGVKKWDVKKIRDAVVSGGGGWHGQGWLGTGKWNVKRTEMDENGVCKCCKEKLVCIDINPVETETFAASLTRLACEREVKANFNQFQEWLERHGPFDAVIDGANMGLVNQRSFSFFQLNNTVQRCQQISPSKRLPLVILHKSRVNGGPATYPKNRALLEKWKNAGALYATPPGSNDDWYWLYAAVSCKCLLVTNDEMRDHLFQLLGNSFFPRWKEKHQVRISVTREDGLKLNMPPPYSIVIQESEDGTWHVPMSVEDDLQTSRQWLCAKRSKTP
Assay: FP cleavage assay, PRORP1 dose response
Assay type: biochemical
Conditions: for activity at 6.25 µM: read-out: PRORP1 Activity (%)
Method: Compounds gambogic acid (A) and juglone (B) were incubated with enzyme at double the reaction concentration for 30 min prior to the addition of an equal volume of substrate to initiate the reaction. PRORP1 reactions (shown in green) were performed with 0.3 nM PRORP1 and 800 nM pre-tRNA containing 40 nM Fl-pre-tRNA at 25 °C in 30 mM MOPS pH 7.8, 5 mM MgCl2, 100 mM NaCl, 1 mM TCEP, 500 nM (12 μg/ml) yeast tRNA, 5 mM spermidine, 6.65 μg/ml BSA, and 0.01% NP-40. MRPP1/2/3 reactions (shown in red) were performed using 50 nM MRPP3, 500 nM MRPP1/2, 500 nM pre-tRNA containing 40 nM Fl-pre-tRNA at 37 °C in 50 mM MOPS (pH 7.8), 1 mM TCEP, 4.5 mM MgCl2, and 100 mM NaCl. B. subtilis RNase P reactions (shown in blue) were performed using 20 nM RNase P and 500 nM pre-tRNA containing 40 nM Fl-pre-tRNA at 37 °C in 50 mM Tris, pH 7.2, 5 mM MgCl2, 100 mM KCl, 500 nM (12 μg/ml) yeast tRNA, 20 mM dithiothreitol (DTT), 10 mM spermidine, and 0.01% NP-40. Equation 1 was fit to each dataset.
The activity of PRORP1 catalyzed pre-tRNA cleavage was measured by monitoring the fluorescence anisotropy (FA) signal (λex = 485 nm and λem = 535 nm) over time at 25 °C in buffer conditions optimized for a high-throughput format, 30 mM MOPS pH 7.8, 5 mM MgCl2, 100 mM NaCl, 1 mM TCEP, 500 nM (12 μg/ml) yeast tRNA, 5 mM spermidine, 6.65 μg/ml BSA, and 0.01% NP-40. Yeast tRNA^mix (Roche) was used to reduce the number of compounds that inhibit PRORP1 activity by targeting tRNA. Prior to each reaction, pre-tRNA was heated for 3 min at 95 °C to unfold the RNA and refolded in the reaction buffer at room temperature (25 °C) for 30 min. Reactions were performed in black, 96-well plates (Corning Incorporation, #3686) using a TECAN plate-reader (Infinite F500, G-factor = 1.05) at 25 °C, and the FA values recorded. Reactions were initiated with the addition of substrate to enzyme. Experiments were done in the presence of excess substrate. The concentration of enzyme was 0.3 to 5 nM, the concentration of labeled substrate (Fl-pre-tRNA) was 40 nM, and the concentration of pre-tRNA was 120 to 4000 nM. The concentration of Fl-pre-tRNA was held constant in all reactions.
The dose response was measured using the FP assay as described above with varying concentrations of compound. Compounds were incubated with PRORP1 at twice the reaction concentration for 30 min prior to the addition of equal volumes of substrate to initiate the reaction. Experiments were done under multiple turnover conditions (same buffer conditions as the FP assay). […] PRORP1 activity was determined as a function of inhibitor concentration, and Equation 1 was fit to the data to determine the IC50 value. The standard error of the mean (SEM) is reported from the fit.(1) Activity(%)=100/1+([I]/IC50)^n

[1] = 6.25 μM of inhibitor, FP cleavage assay

Row | SMILES | activity at 6.25 µM [1] [%] | also measured
1 | CC(=O)O[C@@H]1C[C@@]2(C)[C@H](c3ccoc3)C[C@H]3O[C@]32[C@]2(C)C(=O)C(O)=C3C(C)(C)C(=O)C=C[C@]3(C)[C@@H]12 [anthothecol] | 15.5 | 
2 | O=C(O)C1=CC(=C(c2ccc(O)c(C(=O)O)c2)c2ccc(O)c(C(=O)O)c2)C=CC1=O [aurintricarboxylic acid] | 46.5 | 
3 | O=C1C(Cl)=C(Cl)C(=O)C(Cl)=C1Cl [chloranil] | 40.2 | 
4 | Cc1cc(-c2ccc(/N=N/c3ccc4c(S(=O)(=O)O)cc(S(=O)(=O)O)c(N)c4c3O)c(C)c2)ccc1/N=N/c1ccc2c(S(=O)(=O)O)cc(S(=O)(=O)O)c(N)c2c1O [evans blue] | 20.2 | 
5 | CN(C)c1ccc(C(=C2C=CC(=[N+](C)C)C=C2)c2ccc(N(C)C)cc2)cc1 [gentian violet] | 0 | 
6 | COC(=O)/C(C)=C\C[C@@]12OC(C)(C)[C@@H]3C[C@@H](C=C4C(=O)c5c(O)c6c(c(CC=C(C)C)c5O[C@]431)O[C@](C)(CCC=C(C)C)C=C6)C2=O [methyl gambogate] |  | activity at 6.25 µM: 34.8%
7 | CC(=O)[O][Hg][c]1ccccc1 [phenylmercuric acetate] |  | PRORP1 Activity (%) [1]: 32.2%
8 | CC1=CC(=O)c2c(O)cccc2C1=O [plumbagin] | 2.6 | 

Source: paper PMC9731865, “Gambogic acid and juglone inhibit RNase P through distinct mechanisms” (The Journal of Biological Chemistry, 2022)
